# Experimental data published in paper PMC7816196, “Antitubercular 2-Pyrazolylpyrimidinones: Structure–Activity Relationship and Mode-of-Action Studies” (Journal of Medicinal Chemistry, 2021).
# Experiments:
# Assay type in all cases: cell-based, Mycobacterium tuberculosis
# [1] = test system: MmpL3 G596R
# [2] = test system: MmpL3 V681
# [3] = test system: MmpL3 F255L
SMILES,MmpL3 G596R MIC [1] [µM],MmpL3 V681 MIC [2] [µM],MmpL3 F255L MIC [3] [µM]
"CC(=O)Nc1cc(C)nn1-c1nc(-c2ccccc2)cc(=O)[nH]1 [Compound 15, N-(3-Methyl-1-(4-oxo-6-phenyl-1,4-dihydropyrimidin-2-yl)-1H-pyrazol-5-yl)acetamide]",>200,>200,>200
"Cc1cc(Nc2ccc(F)cc2)n(-c2nc(C(F)(F)F)cc(=O)[nH]2)n1 [Compound 40, 2-(5-((4-Fluorophenyl)amino)-3-methyl-1H-pyrazol-1-yl)-6-(trifluoromethyl)pyrimidin-4(3H)-one]",,,>200
